According to ChEMBL document CHEMBL1201862, “PubChem BioAssay data set” (2004):
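Five compound concentrations were applied to cells in 96-well plates for 48 hours; endpoints were derived by simple linear interpolation of the resulting dose-response curve. GI50: concentration for 50% inhibition of growth.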 Active and inactive are the calls of the source. Cut-off read from the data, not from the text of the source: active = GI50 up to about 1.1 µM and inactive = higher.

What was measured:
Assay in all cases: NCI-60 cell line screen, 48 h
A498 = test system: A498
NCI-H226 = test system: NCI-H226
RPMI-8226 = test system: RPMI-8226
SR = test system: SR
SF-295 = test system: SF-295
NCI/ADR-RES = test system: NCI/ADR-RES
NCI-H522 = test system: NCI-H522
MOLT-4 = test system: MOLT-4
COLO 205 = test system: COLO 205
OVCAR-8 = test system: OVCAR-8
K562 = test system: K562
MCF7 = test system: MCF7
CCRF-CEM = test system: CCRF-CEM
SNB-19 = test system: SNB-19
HT-29 = test system: HT-29
UO-31 = test system: UO-31
MDA-N = test system: MDA-N
UACC-62 = test system: UACC-62
LOX IMVI = test system: LOX IMVI
NCI-H460 = test system: NCI-H460

Compound: N#Cc1nc(C(F)(F)F)oc1N
- GI50 (A498): > 100 µM (inactive)
- GI50 (NCI-H226): > 100 µM (inactive)
- GI50 (RPMI-8226): > 100 µM (inactive)
- GI50 (SR): > 100 µM (inactive)
- GI50 (SF-295): > 100 µM (inactive)
- GI50 (NCI/ADR-RES): > 100 µM (inactive)
- GI50 (NCI-H522): 66.1 µM (inactive)
- GI50 (MOLT-4): > 100 µM (inactive)
- GI50 (COLO 205): > 100 µM (inactive)
- GI50 (OVCAR-8): > 100 µM (inactive)
- GI50 (K562): > 100 µM (inactive)
- GI50 (MCF7): > 100 µM (inactive)
- GI50 (CCRF-CEM): 95.3 µM (inactive)
- GI50 (SNB-19): > 100 µM (inactive)
- GI50 (HT-29): > 100 µM (inactive)
- GI50 (UO-31): > 100 µM (inactive)
- GI50 (MDA-N): > 100 µM (inactive)
- GI50 (UACC-62): > 100 µM (inactive)
- GI50 (LOX IMVI): > 100 µM (inactive)
- GI50 (NCI-H460): > 100 µM (inactive)

Compound: C/C(=N\N=C(/[SeH])N1CC2CCC(CC2)C1)c1ccccn1
- GI50 (A498): 0.196 µM (active)
- GI50 (NCI-H226): 0.43 µM (active)
- GI50 (RPMI-8226): < 0.01 µM (active)
- GI50 (SR): 0.0223 µM (active)
- GI50 (SF-295): 0.0673 µM (active)
- GI50 (NCI/ADR-RES): < 0.01 µM (active)
- GI50 (NCI-H522): 0.161 µM (active)
- GI50 (MOLT-4): 0.014 µM (active)
- GI50 (COLO 205): < 0.01 µM (active)
- GI50 (OVCAR-8): 0.0137 µM (active)
- GI50 (K562): < 0.01 µM (active)
- GI50 (MCF7): < 0.01 µM (active)
- GI50 (CCRF-CEM): 0.0111 µM (active)
- GI50 (SNB-19): 0.2 µM (active)
- GI50 (HT-29): < 0.01 µM (active)
- GI50 (UO-31): 0.217 µM (active)
- GI50 (MDA-N): 0.226 µM (active)
- GI50 (UACC-62): 0.0596 µM (active)
- GI50 (LOX IMVI): 0.0244 µM (active)
- GI50 (NCI-H460): 0.0568 µM (active)

Compound: CCOC(=O)c1c(NS(=O)(=O)c2ccc(Br)cc2)sc2c1CCCC2
- GI50 (A498): 9.4 µM (inactive)
- GI50 (NCI-H226): 3.66 µM (inactive)
- GI50 (RPMI-8226): 4.6 µM (inactive)
- GI50 (SR): 19.7 µM (inactive)
- GI50 (SF-295): 3.92 µM (inactive)
- GI50 (NCI/ADR-RES): 1.57 µM (inactive)
- GI50 (NCI-H522): 2.03 µM (inactive)
- GI50 (MOLT-4): 4.91 µM (inactive)
- GI50 (COLO 205): 13 µM (inactive)
- GI50 (OVCAR-8): 5.89 µM (inactive)
- GI50 (K562): 5.79 µM (inactive)
- GI50 (MCF7): 10.3 µM (inactive)
- GI50 (CCRF-CEM): 5.51 µM (inactive)
- GI50 (SNB-19): 7.46 µM (inactive)
- GI50 (HT-29): 5.3 µM (inactive)
- GI50 (UO-31): 3.51 µM (inactive)
- GI50 (MDA-N): 13.8 µM (inactive)
- GI50 (UACC-62): 6.46 µM (inactive)
- GI50 (LOX IMVI): 13.6 µM (inactive)
- GI50 (NCI-H460): 6.4 µM (inactive)

Compound: NC(=O)ON=C1CCN(Cc2ccccc2)CC1
- GI50 (A498): > 100 µM (inactive)
- GI50 (NCI-H226): > 100 µM (inactive)
- GI50 (RPMI-8226): > 100 µM (inactive)
- GI50 (SR): > 100 µM (inactive)
- GI50 (SF-295): > 100 µM (inactive)
- GI50 (NCI/ADR-RES): > 100 µM (inactive)
- GI50 (NCI-H522): > 100 µM (inactive)
- GI50 (MOLT-4): > 100 µM (inactive)
- GI50 (COLO 205): > 100 µM (inactive)
- GI50 (OVCAR-8): > 100 µM (inactive)
- GI50 (K562): > 100 µM (inactive)
- GI50 (MCF7): > 100 µM (inactive)
- GI50 (CCRF-CEM): > 100 µM (inactive)
- GI50 (SNB-19): > 100 µM (inactive)
- GI50 (HT-29): > 100 µM (inactive)
- GI50 (UO-31): > 100 µM (inactive)
- GI50 (MDA-N): > 100 µM (inactive)
- GI50 (UACC-62): > 100 µM (inactive)
- GI50 (LOX IMVI): > 100 µM (inactive)
- GI50 (NCI-H460): > 100 µM (inactive)

Compound: CN1C(=O)C(O)CC1c1cccc(F)c1 (centres undefined)
- GI50 (A498): > 100 µM (inactive)
- GI50 (NCI-H226): > 100 µM (inactive)
- GI50 (RPMI-8226): > 100 µM (inactive)
- GI50 (SR): > 100 µM (inactive)
- GI50 (SF-295): > 100 µM (inactive)
- GI50 (NCI/ADR-RES): > 100 µM (inactive)
- GI50 (NCI-H522): > 100 µM (inactive)
- GI50 (MOLT-4): > 100 µM (inactive)
- GI50 (COLO 205): > 100 µM (inactive)
- GI50 (OVCAR-8): > 100 µM (inactive)
- GI50 (K562): > 100 µM (inactive)
- GI50 (MCF7): > 100 µM (inactive)
- GI50 (CCRF-CEM): > 100 µM (inactive)
- GI50 (SNB-19): > 100 µM (inactive)
- GI50 (HT-29): > 100 µM (inactive)
- GI50 (UO-31): > 100 µM (inactive)
- GI50 (MDA-N): > 100 µM (inactive)
- GI50 (UACC-62): > 100 µM (inactive)
- GI50 (LOX IMVI): > 100 µM (inactive)
- GI50 (NCI-H460): > 100 µM (inactive)

Compound: CC12CCC(C(Nc3ccccn3)C1=O)C2(C)C (centres undefined)
- GI50 (A498): > 100 µM (inactive)
- GI50 (NCI-H226): > 100 µM (inactive)
- GI50 (RPMI-8226): > 100 µM (inactive)
- GI50 (SR): > 100 µM (inactive)
- GI50 (SF-295): > 100 µM (inactive)
- GI50 (NCI/ADR-RES): > 100 µM (inactive)
- GI50 (NCI-H522): > 100 µM (inactive)
- GI50 (MOLT-4): > 100 µM (inactive)
- GI50 (COLO 205): > 100 µM (inactive)
- GI50 (OVCAR-8): > 100 µM (inactive)
- GI50 (K562): > 100 µM (inactive)
- GI50 (MCF7): > 100 µM (inactive)
- GI50 (CCRF-CEM): > 100 µM (inactive)
- GI50 (SNB-19): > 100 µM (inactive)
- GI50 (HT-29): > 100 µM (inactive)
- GI50 (UO-31): > 100 µM (inactive)
- GI50 (MDA-N): > 100 µM (inactive)
- GI50 (UACC-62): > 100 µM (inactive)
- GI50 (LOX IMVI): > 100 µM (inactive)
- GI50 (NCI-H460): > 100 µM (inactive)

Compound: COc1ccc2c(c1)OCC1Cc3cc4c(cc3OC21)OCO4 (centres undefined)
- GI50 (A498): > 100 µM (inactive)
- GI50 (NCI-H226): > 100 µM (inactive)
- GI50 (RPMI-8226): 71.4 µM (inactive)
- GI50 (SR): 40.6 µM (inactive)
- GI50 (SF-295): 48.5 µM (inactive)
- GI50 (NCI/ADR-RES): 26.2 µM (inactive)
- GI50 (NCI-H522): 49.2 µM (inactive)
- GI50 (MOLT-4): 36.8 µM (inactive)
- GI50 (COLO 205): 35.9 µM (inactive)
- GI50 (OVCAR-8): 45 µM (inactive)
- GI50 (K562): 33.1 µM (inactive)
- GI50 (MCF7): 46.8 µM (inactive)
- GI50 (CCRF-CEM): 51.1 µM (inactive)
- GI50 (SNB-19): > 100 µM (inactive)
- GI50 (HT-29): 35.1 µM (inactive)
- GI50 (UO-31): 38.6 µM (inactive)
- GI50 (MDA-N): 3.14 µM (inactive)
- GI50 (UACC-62): 31.3 µM (inactive)
- GI50 (LOX IMVI): 19.4 µM (inactive)
